Laboratory results from patent US10208056B2, “Condensed tricyclic compounds as protein kinase inhibitors” (FUNDACIÓN DEL SECTOR PÚBLICO ESTATAL CENTRO NACIONAL DE …, priority 2015, dated 2019).
pEC50, pIC50: −log10 of the molar value. Where two headings read alike, the source gives them in different places.

Experiments:
[1] = target: CDK19/Cyclin C (Homo sapiens (Human), UniProt Q9BWU1); assay: CDK19/Cyclin C binding assay (LanthaScreen Eu-Kinase Binding Assay); conditions: read-out: CDK19-CYCC IC50
Sequence of CDK19/Cyclin C (Q9BWU1 whole entry): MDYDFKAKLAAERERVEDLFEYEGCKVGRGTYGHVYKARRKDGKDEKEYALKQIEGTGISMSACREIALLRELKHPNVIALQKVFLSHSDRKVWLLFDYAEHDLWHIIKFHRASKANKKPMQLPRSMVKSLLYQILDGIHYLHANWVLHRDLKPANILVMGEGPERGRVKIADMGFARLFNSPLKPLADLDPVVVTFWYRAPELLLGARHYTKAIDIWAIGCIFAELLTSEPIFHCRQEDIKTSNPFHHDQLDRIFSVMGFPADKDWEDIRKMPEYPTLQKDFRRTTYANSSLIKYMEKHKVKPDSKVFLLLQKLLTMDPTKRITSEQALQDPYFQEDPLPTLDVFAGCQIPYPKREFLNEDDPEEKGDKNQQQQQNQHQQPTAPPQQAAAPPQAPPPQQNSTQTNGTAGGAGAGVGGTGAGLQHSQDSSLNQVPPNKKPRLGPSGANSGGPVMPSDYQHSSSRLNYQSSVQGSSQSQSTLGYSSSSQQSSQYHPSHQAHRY
Sequence of CDK19/Cyclin C (P24863 whole entry partner): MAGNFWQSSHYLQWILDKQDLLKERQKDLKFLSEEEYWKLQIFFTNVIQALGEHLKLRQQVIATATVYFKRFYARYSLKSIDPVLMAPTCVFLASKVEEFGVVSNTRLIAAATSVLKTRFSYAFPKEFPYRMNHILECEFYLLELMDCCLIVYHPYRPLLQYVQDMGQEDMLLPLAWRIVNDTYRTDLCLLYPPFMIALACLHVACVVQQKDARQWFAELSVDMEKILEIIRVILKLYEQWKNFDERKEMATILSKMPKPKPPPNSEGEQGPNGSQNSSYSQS
How it was run: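 LanthaScreen TR-FRET tracer-displacement format with 2 nM Cdk19-Cyclin C, 20 nM tracer and 2 nM Eu-anti-GST antibody. The buffer was 50 mM HEPES pH 7.5, 10 mM MgCl2, 1 mM EGTA, 0.01% Brij-35, with 1% DMSO final. Compounds were tested as 1:3 serial dilutions and incubated for 60 min at 25 °C.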

[2] = target: intracellular HASPIN (Homo sapiens (Human), UniProt Q8TF76); assay: Cellular HASPIN inhibition assay, western blot phospho H3T3 in synchronized SW620 cells; format: cell-based; conditions: read-out: SW620 PH3(T3) in synchronized cells
Sequence of intracellular HASPIN (Q8TF76 whole entry): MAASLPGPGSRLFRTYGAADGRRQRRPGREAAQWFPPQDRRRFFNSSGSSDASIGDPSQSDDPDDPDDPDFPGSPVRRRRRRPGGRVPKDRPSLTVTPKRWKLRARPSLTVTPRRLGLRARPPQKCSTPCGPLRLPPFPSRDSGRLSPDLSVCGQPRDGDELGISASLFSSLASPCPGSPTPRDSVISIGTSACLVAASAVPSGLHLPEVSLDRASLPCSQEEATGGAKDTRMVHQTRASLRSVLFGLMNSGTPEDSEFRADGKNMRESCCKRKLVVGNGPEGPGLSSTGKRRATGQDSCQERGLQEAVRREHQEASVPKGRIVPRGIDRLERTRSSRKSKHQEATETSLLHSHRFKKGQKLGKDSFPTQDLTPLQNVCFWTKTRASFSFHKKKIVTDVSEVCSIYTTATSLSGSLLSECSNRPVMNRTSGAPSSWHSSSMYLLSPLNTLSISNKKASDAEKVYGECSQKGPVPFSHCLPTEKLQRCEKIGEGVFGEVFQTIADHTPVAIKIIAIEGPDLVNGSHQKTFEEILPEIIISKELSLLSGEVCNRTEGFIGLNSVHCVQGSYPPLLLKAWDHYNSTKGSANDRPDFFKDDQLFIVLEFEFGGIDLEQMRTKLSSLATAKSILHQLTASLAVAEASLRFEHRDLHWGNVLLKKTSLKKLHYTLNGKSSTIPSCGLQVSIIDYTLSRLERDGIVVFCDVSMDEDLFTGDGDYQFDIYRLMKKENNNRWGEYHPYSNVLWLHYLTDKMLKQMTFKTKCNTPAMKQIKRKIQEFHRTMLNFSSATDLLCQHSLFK
Procedure: Compounds can be screened for their ability to inhibit intracellular HASPIN using a western blot assay to detect phosphorylation of the HASPIN substrate H3T3 in synchronized cells. SW620 cells are plated at 200000 cells per well in 6-well plates (Solmeglas 13118) in RPMI media (Sigma-Aldrich R6504) supplemented with 10% foetal bovine serum (Sigma-Aldrich F7524), Penicillin/Streptomycin solution diluted 1:100 (Gibco 15070-063), and fungizone (Gibco, 15290-018), and allowed to adhere overnight at 37° C. in 5% CO2. Cells are then treated 16 h hours with Nocadazole (Sigma-Aldrich M1404) at 250 ng/ml to arrest them in mitosis. Proteasoma inhibitor MG132 (Sigma-Aldrich C2211) is added to a final concentration of […] to keep cells arrested in mitosis. Compounds are then added to the cell media from a final concentration of 10 μM in 10-fold serial dilutions and the cells are incubated at 37° C. in 5% CO2. After 1 hour and 30 minutes of treatment with the compounds, the cells are washed in PBS, lysed adding 100 μl of protein lysis buffer (62.5 mM Tris pH 6.8 al 6.25%, 2% SDS y 10% glycerol) incubation 10 minutes at room temperature and heating at 95° C. 10 min. The protein content of the lysates is determined by DC protein assay (Biorad, Ref. 5000116). The proteins are resolved by SDS-PAGE and transferred to nitrocellulose membrane (VWR International eurolab, Ref. 732-4007). The membranes are incubated overnight at 4° C. with antibodies specific for total H3 (Millipore #07424), phosphothreonine-3 H3 (Cell Signaling Ref. 14269) they are washed and then incubated with IRDye800 conjugated anti-mouse (Pierce/Cultek, 35521) and Alexa Fluor 680 goat anti-rabbit IgG secondary antibodies (Invitrogen, A21076). The bands are visualized and quantified using an Odyssey infrared imaging system (Li-Cor Biosciences). The percentage of phosphorylated H3 vs total H3 in synchronized cells is taken as hundred percent of phosphorylation. The percentage of H3 phosphorylation is finally plotted against concentration for each compound and EC50s for intracellular HASPIN inhibition are calculated using ActivityBase from IDBS.

[3] = target: intracellular CDK8 (Homo sapiens (Human), UniProt P49336); assay: Cellular CDK8 inhibition assay, western blot P-STAT1 (S727) in IFN-γ treated SW620 cells; format: cell-based; conditions: SW620, IFNγ treated, read-out: SW620 P-STAT1(S727) w IFNγ
Sequence of intracellular CDK8 (P49336 whole entry): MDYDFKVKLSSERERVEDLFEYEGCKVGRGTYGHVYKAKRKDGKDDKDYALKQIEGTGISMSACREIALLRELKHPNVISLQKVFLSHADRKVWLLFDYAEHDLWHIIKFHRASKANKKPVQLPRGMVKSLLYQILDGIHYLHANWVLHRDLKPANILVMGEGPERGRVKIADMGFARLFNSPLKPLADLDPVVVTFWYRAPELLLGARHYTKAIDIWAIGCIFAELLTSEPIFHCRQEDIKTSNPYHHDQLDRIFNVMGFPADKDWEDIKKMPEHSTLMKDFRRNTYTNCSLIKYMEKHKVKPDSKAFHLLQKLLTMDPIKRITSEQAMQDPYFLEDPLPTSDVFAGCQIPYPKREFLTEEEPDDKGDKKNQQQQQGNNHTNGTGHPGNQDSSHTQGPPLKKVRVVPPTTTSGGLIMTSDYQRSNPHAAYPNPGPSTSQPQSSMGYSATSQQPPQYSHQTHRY
Sequence of intracellular CDK8 (P24863 whole entry partner): as the sequence (P24863 whole entry partner) above
Sequence of intracellular CDK8 (Q93074 whole entry partner): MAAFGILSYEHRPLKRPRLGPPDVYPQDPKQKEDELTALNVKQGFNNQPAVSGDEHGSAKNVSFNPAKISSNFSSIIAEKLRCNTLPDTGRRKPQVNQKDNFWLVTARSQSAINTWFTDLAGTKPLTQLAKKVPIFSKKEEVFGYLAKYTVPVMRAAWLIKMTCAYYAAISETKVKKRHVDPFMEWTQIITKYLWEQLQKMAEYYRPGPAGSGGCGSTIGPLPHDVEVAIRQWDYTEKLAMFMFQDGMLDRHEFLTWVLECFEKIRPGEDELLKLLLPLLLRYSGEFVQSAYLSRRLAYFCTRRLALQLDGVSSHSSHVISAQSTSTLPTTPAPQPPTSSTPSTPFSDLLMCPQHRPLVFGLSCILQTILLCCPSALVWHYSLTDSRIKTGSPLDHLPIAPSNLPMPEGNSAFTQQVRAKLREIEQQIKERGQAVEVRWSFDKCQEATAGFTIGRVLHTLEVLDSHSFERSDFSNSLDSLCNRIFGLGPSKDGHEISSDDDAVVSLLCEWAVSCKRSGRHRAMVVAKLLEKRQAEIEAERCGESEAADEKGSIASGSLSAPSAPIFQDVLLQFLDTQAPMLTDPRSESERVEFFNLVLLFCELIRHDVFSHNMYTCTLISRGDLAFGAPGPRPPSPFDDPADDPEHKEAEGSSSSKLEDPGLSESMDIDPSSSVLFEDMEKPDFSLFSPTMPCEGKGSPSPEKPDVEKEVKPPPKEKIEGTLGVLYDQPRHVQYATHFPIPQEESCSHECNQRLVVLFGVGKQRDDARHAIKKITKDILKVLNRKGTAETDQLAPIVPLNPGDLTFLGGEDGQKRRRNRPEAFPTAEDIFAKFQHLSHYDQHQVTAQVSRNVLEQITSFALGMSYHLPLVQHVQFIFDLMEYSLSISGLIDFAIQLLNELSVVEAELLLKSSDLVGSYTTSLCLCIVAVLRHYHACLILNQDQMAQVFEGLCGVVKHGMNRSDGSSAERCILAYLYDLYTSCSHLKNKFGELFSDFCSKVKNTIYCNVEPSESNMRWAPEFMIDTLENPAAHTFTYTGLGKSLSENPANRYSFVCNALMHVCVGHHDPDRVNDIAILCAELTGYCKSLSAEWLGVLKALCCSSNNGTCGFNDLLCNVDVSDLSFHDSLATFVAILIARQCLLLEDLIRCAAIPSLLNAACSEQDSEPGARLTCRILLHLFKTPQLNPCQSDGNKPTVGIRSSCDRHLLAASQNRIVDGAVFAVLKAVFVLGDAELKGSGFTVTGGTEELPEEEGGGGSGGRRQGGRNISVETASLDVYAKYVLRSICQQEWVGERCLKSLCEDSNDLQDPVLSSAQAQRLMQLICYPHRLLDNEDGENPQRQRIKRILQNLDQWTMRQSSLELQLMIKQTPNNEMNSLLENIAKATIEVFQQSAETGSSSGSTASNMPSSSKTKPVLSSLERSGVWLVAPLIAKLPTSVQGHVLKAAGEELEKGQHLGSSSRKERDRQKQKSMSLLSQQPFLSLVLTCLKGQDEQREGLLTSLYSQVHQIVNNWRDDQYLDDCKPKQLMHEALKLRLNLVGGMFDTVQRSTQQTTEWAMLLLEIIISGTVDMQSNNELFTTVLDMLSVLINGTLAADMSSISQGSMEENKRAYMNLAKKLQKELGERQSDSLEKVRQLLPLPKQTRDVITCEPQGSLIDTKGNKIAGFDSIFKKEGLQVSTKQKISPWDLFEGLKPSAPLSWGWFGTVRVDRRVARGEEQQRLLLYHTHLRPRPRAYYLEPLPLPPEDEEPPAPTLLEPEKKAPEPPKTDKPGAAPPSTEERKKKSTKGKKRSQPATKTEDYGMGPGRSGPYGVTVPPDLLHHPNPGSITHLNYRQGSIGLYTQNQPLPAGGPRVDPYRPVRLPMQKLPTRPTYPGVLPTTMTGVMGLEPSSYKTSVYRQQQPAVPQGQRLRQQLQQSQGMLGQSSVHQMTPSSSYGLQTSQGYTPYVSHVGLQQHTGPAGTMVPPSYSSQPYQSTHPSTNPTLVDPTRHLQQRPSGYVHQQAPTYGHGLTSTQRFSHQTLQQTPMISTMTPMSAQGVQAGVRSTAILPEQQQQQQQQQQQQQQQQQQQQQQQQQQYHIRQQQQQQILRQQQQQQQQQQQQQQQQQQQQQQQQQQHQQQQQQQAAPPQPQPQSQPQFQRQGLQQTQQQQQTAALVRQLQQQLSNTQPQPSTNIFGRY

pIC50 [1]	pEC50 ([2]; semiquantitative)	pEC50 ([3]; semiquantitative)	pEC50 ([2]; quantitative)	pEC50 ([3]; quantitative)	SMILES
7.79	> 6.30	> 6.30	–	–	CCn1c(C(N)=O)c(-c2ccccc2OC)c2c1-c1ccncc1OC2(C)C [Example 68]
7.85	5.00 to 6.30	> 6.30	–	–	NC(=O)c1cc2c([nH]1)-c1ccncc1O[C@H]2C1CCOCC1 (single isomer, unassigned) [Example 72]
8.85	> 6.30	> 6.30	–	–	CC1(C)Oc2cnccc2-c2c1cc(C(N)=O)n2CCF [Example 52]
8.96	–	–	7.82	10.19	CCn1c(C(N)=O)cc2c1-c1ccncc1OC2(C)C [Example 43]
